Reference: publication PMC12067145 (ACS Medicinal Chemistry Letters, 2025)
Where two headings read alike, the source gives them in different places. Blank lines part the entries; values can stand above or below the compound they belong to.

Experiments:
ChromatoLogD = format: physicochemical
From the text: 1 TREK-1 Inhibitory Activity and Lipophilicity of Analogues 10 | column: ChromatoLogD

human TREK-1 = molecular target: T1, human TREK-1 (Homo sapiens, UniProt O95069); assay: TREK-1 thallium (Tl+) flux assay; conditions: for IC50: read-out: h TREK-1 Tl+ IC50, thallium flux, hTREK-1/CHO
T1 sequence (O95069 1-426): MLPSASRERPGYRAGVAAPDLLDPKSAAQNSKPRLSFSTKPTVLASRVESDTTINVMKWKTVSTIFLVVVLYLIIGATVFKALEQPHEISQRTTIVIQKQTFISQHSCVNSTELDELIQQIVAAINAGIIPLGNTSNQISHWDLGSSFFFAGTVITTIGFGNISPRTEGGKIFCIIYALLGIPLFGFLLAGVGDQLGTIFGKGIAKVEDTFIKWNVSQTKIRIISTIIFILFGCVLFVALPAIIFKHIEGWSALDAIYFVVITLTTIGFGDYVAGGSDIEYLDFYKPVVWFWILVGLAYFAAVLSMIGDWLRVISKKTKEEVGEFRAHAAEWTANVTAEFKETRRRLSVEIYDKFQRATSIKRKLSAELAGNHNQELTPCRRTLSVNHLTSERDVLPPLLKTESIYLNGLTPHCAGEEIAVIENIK

[1] = Liver microsome intrinsic clearance (human); format: in vitro ADME; conditions: for CLint scaled at 1 µM: pH 7.4, human liver microsomes, read-out: LMS CLINT human
Protocol: (§1) After a 5 min preincubation, the reaction was initiated by the addition of NADPH (1 mM). At selected time intervals between 0 ~ 60 min (e.g. 0, 3, 7, 15, 25, 45 and/or 60 min), aliquots were taken and subsequently placed into a 96-well plate containing cold acetonitrile with an internal standard (50 ng/mL carbamazepine). Plates were then centrifuged at 3000 rcf (4 °C) for 10 min, and the supernatant was transferred to a separate 96-well plate and diluted 1:1 with water for LC/MS/MS analysis. The in vitro half-life (T 1/2, min, Eq. 1), intrinsic clearance (CLint, mL/min/kg, Eq. 2), and subsequent predicted hepatic clearance (CLhep, mL/min/kg, Eq. 3) were determined employing the following equations: […]
(§2) where k represents the slope from linear regression analysis of the natural log percent remaining of a test compound as a function of incubation time […]
(§3) (2) CLint = in vitroT1/2 x mg microsomes x gram liver x kg body wt ascale-up factors: of 20 (human) or 45 (rat) or 87.5 (mouse) […]
(§4) where Qh (hepatic blood flow, mL/min/kg) is 21 (human) or 70 (rat) or 90 (mouse).
(§5) LC/MS/MS Bioanalysis of Samples from Plasma Protein Binding and Intrinsic Clearance […]
(§6) Samples were analyzed on a Thermo Electron TSQ Quantum Ultra triple quad mass spectrometer (San Jose, CA) via electrospray ionization (ESI) with two Themo Electron Accella pumps (San Jose, CA), and a Leap Technologies CTC PAL autosampler (Carrboro, NC). Analytes were separated by gradient elution on a dual column system with two Thermo Hypersil Gold (2.1 x 30 mm, 1.9 µm) columns (San Jose, CA) thermostated at 40 °C. HPLC mobile phase A was 0.1% formic acid in water and mobile phase B was 0.1% formic acid in acetonitrile. The gradient started […]
(§7) for 0.2 min; returned to 10% B in 0.1 min. The total run time was 1.3 min and the HPLC flow rate was 0.8 mL/min. While pump 1 ran the gradient method, pump 2 equilibrated the alternate column isocratically at 10% B. Compound optimization, data collection, and processing were performed using Thermo Electron's QuickQuan software (v2.3) and Xcalibur (v2.0.7 SP1). […]

[2] = Rat IV:PBL PK cassette study / in vivo rat clearance; conditions: male, Sprague-Dawley, in vivo rat plasma clearance, read-out: rat CLp; for clearance: intravenous; for clearance at 24 h: iv, 0.2 mg/kg
[3] = Liver microsome intrinsic clearance (mouse); format: in vitro ADME; conditions: pH 7.4; mouse liver microsomes; read-out: LMS CLINT mouse
Protocol: as §1, §2, §3, §4, §5, §6, §7

[4] = Plasma protein binding (human); format: in vitro ADME; conditions: pH 7.4, read-out: PPB human (converted)
Protocol: (§8) 0.3% DMSO - ΔRatio of 1 µM control compound)x100
(§9) In vitro Plasma protein binding and Brain homogenate binding: Determination of fraction unbound (f u) in plasma was conducted in vitro via equilibrium dialysis using HTDialysis (HTD) membrane plates. The top half of the plate was filled with 100 uL of Dubelco’s Phosphate Buffered Saline, pH 7.4 (DPBS). Compounds were diluted into plasma from each species (5 µM final concentration), which was aliquoted in triplicate to the ‘bottom half’ of the prepared HTD plate wells. The HTD plate was sealed and incubated for 6 hours at 37 °C. Following incubation, each well (both top and bottom halves) were transferred (20 µL) to the corresponding wells of a 96-shallow-well (V-bottom) plate. The daughter plates were then matrix-matched (DPBS side wells received equal volume of plasma, and plasma side wells received equal volume of DPBS), and extraction solution (120 µL; acetonitrile containing 50 nM carbamazepine as IS) was added to all wells of both daughter plates to precipitate protein and extract test article. The plates were then sealed and centrifuged (3500 rcf) for 10 minutes at ambient temperature. Supernatant (60 µL) from each well of the daughter plates was then transferred to the corresponding wells of new daughter plates (96-shallow-well, V bottom) containing water (Milli-Q, 60 µL/well), and the plates were sealed in preparation for LC-MS/MS analysis (see LC-MS/MS analysis method below).
(§10) The unbound fraction (f u) was calculated following the equation below, and mean values for each species were calculated from 3 replicates. A similar approach was used to determine the degree of brain homogenate binding, which employed the same methodology and procedure with the following modifications: 1) a final compound concentration of 1 μM was used, 2) naïve rat brains were homogenized in DPBS (1:3 composition of brain: DPBS, w/w) using a Mini-Bead Beater™ machine in order to obtain brain homogenate, which was then treated in the same manner as the plasma samples in the previously described plasma protein binding assay. Fraction unbound for both plasma and brain samples was determined using Equation 4.

[5] = Plasma protein binding (mouse); format: in vitro ADME; conditions: pH 7.4, read-out: PPB mouse (converted)
Protocol: as §8, §9, §10

[6] = Liver microsome intrinsic clearance (rat); format: in vitro ADME; conditions: pH 7.4; rat liver microsomes; read-out: LMS CLINT rat
Protocol: as §1, §2, §3, §4, §5, §6, §7

Aqueous solubility = format: physicochemical; conditions: cyclopropyl amides versus N-Boc series
[7] = Plasma protein binding (species not stated); format: in vitro ADME; conditions: pH 7.4
Protocol: as §8
as §9, with “Supernatant (60 µL) from each well of the daughter plates was then transferred to the corresponding wells of new daughter plates (96-shallow-well, V bottom) containing water (Milli-Q, 60 µL/well), and the plates were sealed in preparation for LC-MS/MS analysis (see LC-MS/MS analysis method below).” left out
The unbound fraction (f u) was calculated following the equation below, and mean values for each species were calculated from 3 replicates. […] Fraction unbound for both plasma and brain samples was determined using Equation 4.

TREK-1 = conditions: cited from earlier work

Structure (SMILES): Cc1cc(OCc2ccccc2)ccc1NC(=O)c1cc(NC(=O)OC(C)(C)C)ccc1Cl [Compound 6]
chromatographic logD (ChromatoLogD): 4.9
increase in TREK-1 potency (human TREK-1; versus HTS hit 5): ~17 fold

Structure (SMILES): Cc1cc(OCc2ccccc2)cnc1NC(=O)c1cc(NC(=O)OC(C)(C)C)ccc1Cl [Compound 10a]
chromatographic logD (ChromatoLogD): 4.4
CLint scaled at 1 µM [1]: 137 mL/min/kg
IC50 (human TREK-1): 560 nM

Structure (SMILES): Cc1nc(OCc2ccccc2)ccc1NC(=O)c1cc(NC(=O)OC(C)(C)C)ccc1Cl [Compound 10b]
chromatographic logD (ChromatoLogD): 5

Structure (SMILES): Cc1nc(OCc2ccccc2)cnc1NC(=O)c1cc(NC(=O)OC(C)(C)C)ccc1Cl [Compound 10c]
chromatographic logD (ChromatoLogD): 4.8
clearance [2]: 135 mL/min/kg

Structure (SMILES): Cc1cc(C#Cc2ccccc2)cnc1NC(=O)c1cc(NC(=O)OC(C)(C)C)ccc1Cl [Compound 11]
CLint scaled at 1 µM [1]: 13 mL/min/kg
lowering of human microsomal intrinsic clearance ([1]; versus 10a): 10 fold
CLint scaled at 1 µM [3]: 34 mL/min/kg
fraction unbound at 6 h, 5 µM [4]: 0.005
fraction unbound at 6 h, 5 µM [5]: 0.013
increase in TREK-1 potency (human TREK-1; versus 10a): ~4 fold

Structure (SMILES): Cc1nc(C#Cc2ccccc2)cnc1NC(=O)c1cc(NC(=O)OC(C)(C)C)ccc1Cl [Compound 12]
clearance [2]: 25 mL/min/kg

Structure (SMILES): Cc1ccccc1CC1OC(=O)c2cc(C3CCNCC3)ccc21 (centres unmarked) [Cpd8]
IC50 (TREK-1): 810 nM

Structure (SMILES): O=C(CSc1ccc2ccccc2n1)NNC(=O)c1ccc(Cl)cc1 [TKIM]
IC50 (TREK-1; state-dependent TREK-1 inhibitor): 2960 nM

Next, values leading:

CLint scaled at 1 µM [1]: 10 mL/min/kg
CLint scaled at 1 µM [3]: 6 mL/min/kg
fraction unbound at 6 h, 5 µM [4]: 0.002
fraction unbound at 6 h, 5 µM [5]: 0.011
Structure (SMILES): CC(C)(C)OC(=O)Nc1ccc(Cl)c(C(=O)Nc2ncc(C#Cc3ccccc3)cc2F)c1 [Compound 13a]

fraction unbound at 6 h, 5 µM [5]: < 0.001
Structure (SMILES): CC(C)(C)OC(=O)Nc1ccc(Cl)c(C(=O)Nc2ncc(C#Cc3ccccc3)cc2Cl)c1 [Compound 13b]

CLint scaled at 1 µM [1]: 13 mL/min/kg
CLint scaled at 1 µM [3]: 13 mL/min/kg
IC50 (human TREK-1): 540 nM
Structure (SMILES): Cc1cc(C#Cc2ccccc2F)cnc1NC(=O)c1cc(NC(=O)OC(C)(C)C)ccc1Cl [Compound 14a]

CLint scaled at 1 µM [1]: 20 mL/min/kg
CLint scaled at 1 µM [3]: 40 mL/min/kg
fraction unbound at 6 h, 5 µM [4]: < 0.001
fraction unbound at 6 h, 5 µM [5]: < 0.001
Structure (SMILES): Cc1cc(C#Cc2cccc(F)c2)cnc1NC(=O)c1cc(NC(=O)OC(C)(C)C)ccc1Cl [Compound 14b]

CLint scaled at 1 µM [1]: 27 mL/min/kg
CLint scaled at 1 µM [3]: 78 mL/min/kg
Structure (SMILES): Cc1cc(C#Cc2ccncc2)cnc1NC(=O)c1cc(NC(=O)OC(C)(C)C)ccc1Cl [Compound 14d]

CLint scaled at 1 µM [1]: 13 mL/min/kg
CLint scaled at 1 µM [3]: 69 mL/min/kg
CLint scaled at 1 µM [6]: 25 mL/min/kg
aqueous solubility (in words) (Aqueous solubility): no improvement on aqueous solubility
clearance at 24 h [2]: 12 mL/min/kg
fraction unbound at 6 h, 5 µM [7]: < 0.003
IC50 (human TREK-1): 180 nM
Structure (SMILES): Cc1cc(C#Cc2ccccc2)cnc1NC(=O)c1cc(NC(=O)C2CC2)ccc1Cl [Compound 15a]

CLint scaled at 1 µM [1]: 10 mL/min/kg
CLint scaled at 1 µM [3]: 50 mL/min/kg
CLint scaled at 1 µM [6]: 10 mL/min/kg
aqueous solubility (in words) (Aqueous solubility): no improvement on aqueous solubility
clearance at 24 h [2]: 1.4 mL/min/kg
fraction unbound at 6 h, 5 µM [7]: < 0.003
Structure (SMILES): Cc1cc(C#Cc2ccc(F)cc2)cnc1NC(=O)c1cc(NC(=O)C2CC2)ccc1Cl [Compound 15b]
